Experimental data: the NIST ThermoML archive (doi:10.1016/j.jct.2017.03.040)
Numbers after ± are expanded uncertainties.

Experiment: mn = molality of the nth substance listed, in mol/kg
Conditions: 100 kPa, Liquid; for speed of sound: Frequency=3 MHz, Single path-length method; for mass density: Vibrating tube method

CCCCCn1cc[n+](C)c1.[Br-] [1-pentyl-3-methylimidazolium bromide] + O
speed of sound (288.15 K, m1 = 0.005): 1467.7 ± 1 m/s | speed of sound (288.15 K, m1 = 0.01): 1468.5 ± 1 m/s | speed of sound (288.15 K, m1 = 0.03): 1470.8 ± 1 m/s | speed of sound (288.15 K, m1 = 0.05): 1473.7 ± 1 m/s | mass density (288.15 K, m1 = 0.005): 999.3 ± 0.3 kg/m3 | mass density (288.15 K, m1 = 0.01): 999.5 ± 0.3 kg/m3 | mass density (288.15 K, m1 = 0.03): 1000.31 ± 0.3 kg/m3 | mass density (288.15 K, m1 = 0.05): 1001.11 ± 0.3 kg/m3 | speed of sound (298.15 K, m1 = 0.005): 1497.3 ± 1 m/s | speed of sound (298.15 K, m1 = 0.01): 1498 ± 1 m/s | speed of sound (298.15 K, m1 = 0.03): 1500.3 ± 1 m/s | speed of sound (298.15 K, m1 = 0.05): 1502.8 ± 1 m/s | mass density (298.15 K, m1 = 0.005): 997.23 ± 0.3 kg/m3 | mass density (298.15 K, m1 = 0.01): 997.42 ± 0.3 kg/m3 | mass density (298.15 K, m1 = 0.03): 998.19 ± 0.3 kg/m3 | mass density (298.15 K, m1 = 0.05): 998.96 ± 0.3 kg/m3 | speed of sound (308.15 K, m1 = 0.005): 1520.3 ± 1 m/s | speed of sound (308.15 K, m1 = 0.01): 1520.7 ± 1 m/s | speed of sound (308.15 K, m1 = 0.03): 1522.5 ± 1 m/s | speed of sound (308.15 K, m1 = 0.05): 1524.6 ± 1 m/s | mass density (308.15 K, m1 = 0.005): 994.23 ± 0.3 kg/m3 | mass density (308.15 K, m1 = 0.01): 994.42 ± 0.3 kg/m3 | mass density (308.15 K, m1 = 0.03): 995.2 ± 0.3 kg/m3 | mass density (308.15 K, m1 = 0.05): 995.98 ± 0.3 kg/m3 | speed of sound (318.15 K, m1 = 0.005): 1536.7 ± 1 m/s | speed of sound (318.15 K, m1 = 0.01): 1537.4 ± 1 m/s | speed of sound (318.15 K, m1 = 0.03): 1539.1 ± 1 m/s | speed of sound (318.15 K, m1 = 0.05): 1541 ± 1 m/s | mass density (318.15 K, m1 = 0.005): 990.42 ± 0.3 kg/m3 | mass density (318.15 K, m1 = 0.01): 990.62 ± 0.3 kg/m3 | mass density (318.15 K, m1 = 0.03): 991.41 ± 0.3 kg/m3 | mass density (318.15 K, m1 = 0.05): 992.21 ± 0.3 kg/m3

N[C@@H](CS)C(=O)O [(R)-2-amino-3-mercaptopropanoic acid] + O
speed of sound (288.15 K, m1 = 0.09747): 1474 ± 1 m/s | speed of sound (288.15 K, m1 = 0.1985): 1481.8 ± 1 m/s | speed of sound (288.15 K, m1 = 0.2986): 1489.5 ± 1 m/s | speed of sound (288.15 K, m1 = 0.3968): 1497.1 ± 1 m/s | speed of sound (288.15 K, m1 = 0.4932): 1504.5 ± 1 m/s | speed of sound (288.15 K, m1 = 0.6): 1512.7 ± 1 m/s | speed of sound (288.15 K, m1 = 0.6922): 1519.8 ± 1 m/s | mass density (288.15 K, m1 = 0.09747): 1003.7 ± 0.3 kg/m3 | mass density (288.15 K, m1 = 0.1985): 1008.47 ± 0.31 kg/m3 | mass density (288.15 K, m1 = 0.2986): 1013.2 ± 0.31 kg/m3 | mass density (288.15 K, m1 = 0.3968): 1017.83 ± 0.31 kg/m3 | mass density (288.15 K, m1 = 0.4932): 1022.38 ± 0.32 kg/m3 | mass density (288.15 K, m1 = 0.6): 1027.42 ± 0.33 kg/m3 | mass density (288.15 K, m1 = 0.6922): 1031.77 ± 0.34 kg/m3 | speed of sound (298.15 K, m1 = 0.09747): 1503.6 ± 1 m/s | speed of sound (298.15 K, m1 = 0.1985): 1510.9 ± 1 m/s | speed of sound (298.15 K, m1 = 0.2986): 1518 ± 1 m/s | speed of sound (298.15 K, m1 = 0.3968): 1525.1 ± 1 m/s | speed of sound (298.15 K, m1 = 0.4932): 1532 ± 1 m/s | speed of sound (298.15 K, m1 = 0.6): 1539.6 ± 1 m/s | speed of sound (298.15 K, m1 = 0.6922): 1546.2 ± 1 m/s | mass density (298.15 K, m1 = 0.09747): 1001.64 ± 0.3 kg/m3 | mass density (298.15 K, m1 = 0.1985): 1006.41 ± 0.31 kg/m3 | mass density (298.15 K, m1 = 0.2986): 1011.13 ± 0.31 kg/m3 | mass density (298.15 K, m1 = 0.3968): 1015.77 ± 0.31 kg/m3 | mass density (298.15 K, m1 = 0.4932): 1020.32 ± 0.32 kg/m3 | mass density (298.15 K, m1 = 0.6): 1025.36 ± 0.33 kg/m3 | mass density (298.15 K, m1 = 0.6922): 1029.71 ± 0.34 kg/m3 | speed of sound (308.15 K, m1 = 0.09747): 1525.8 ± 1 m/s | speed of sound (308.15 K, m1 = 0.1985): 1532.2 ± 1 m/s | speed of sound (308.15 K, m1 = 0.2986): 1538.6 ± 1 m/s | speed of sound (308.15 K, m1 = 0.3968): 1544.9 ± 1 m/s | speed of sound (308.15 K, m1 = 0.4932): 1551 ± 1 m/s | speed of sound (308.15 K, m1 = 0.6): 1557.8 ± 1 m/s | speed of sound (308.15 K, m1 = 0.6922): 1563.6 ± 1 m/s | mass density (308.15 K, m1 = 0.09747): 998.63 ± 0.3 kg/m3 | mass density (308.15 K, m1 = 0.1985): 1003.4 ± 0.31 kg/m3 | mass density (308.15 K, m1 = 0.2986): 1008.12 ± 0.31 kg/m3 | mass density (308.15 K, m1 = 0.3968): 1012.76 ± 0.31 kg/m3 | mass density (308.15 K, m1 = 0.4932): 1017.31 ± 0.32 kg/m3 | mass density (308.15 K, m1 = 0.6): 1022.35 ± 0.33 kg/m3 | mass density (308.15 K, m1 = 0.6922): 1026.7 ± 0.34 kg/m3 | speed of sound (318.15 K, m1 = 0.09747): 1541.9 ± 1 m/s | speed of sound (318.15 K, m1 = 0.1985): 1547.8 ± 1 m/s | speed of sound (318.15 K, m1 = 0.2986): 1553.6 ± 1 m/s | speed of sound (318.15 K, m1 = 0.3968): 1559.3 ± 1 m/s | speed of sound (318.15 K, m1 = 0.4932): 1564.8 ± 1 m/s | speed of sound (318.15 K, m1 = 0.6): 1571 ± 1 m/s | speed of sound (318.15 K, m1 = 0.6922): 1576.4 ± 1 m/s | mass density (318.15 K, m1 = 0.09747): 994.82 ± 0.3 kg/m3 | mass density (318.15 K, m1 = 0.1985): 999.59 ± 0.31 kg/m3 | mass density (318.15 K, m1 = 0.2986): 1004.32 ± 0.31 kg/m3 | mass density (318.15 K, m1 = 0.3968): 1008.96 ± 0.31 kg/m3 | mass density (318.15 K, m1 = 0.4932): 1013.51 ± 0.32 kg/m3 | mass density (318.15 K, m1 = 0.6): 1018.55 ± 0.33 kg/m3 | mass density (318.15 K, m1 = 0.6922): 1022.9 ± 0.34 kg/m3

CC(=O)N[C@@H](CS)C(=O)O [N-acetyl-L-cysteine] + O
speed of sound (288.15 K, m1 = 0.09902): 1472.9 ± 1 m/s | speed of sound (288.15 K, m1 = 0.1981): 1479.4 ± 1 m/s | speed of sound (288.15 K, m1 = 0.2976): 1485.8 ± 1 m/s | speed of sound (288.15 K, m1 = 0.397): 1492.3 ± 1 m/s | speed of sound (288.15 K, m1 = 0.4992): 1498.9 ± 1 m/s | speed of sound (288.15 K, m1 = 0.5991): 1505.4 ± 1 m/s | speed of sound (288.15 K, m1 = 0.6903): 1511.3 ± 1 m/s | mass density (288.15 K, m1 = 0.09902): 1003.53 ± 0.3 kg/m3 | mass density (288.15 K, m1 = 0.1981): 1007.96 ± 0.31 kg/m3 | mass density (288.15 K, m1 = 0.2976): 1012.41 ± 0.31 kg/m3 | mass density (288.15 K, m1 = 0.397): 1016.85 ± 0.32 kg/m3 | mass density (288.15 K, m1 = 0.4992): 1021.42 ± 0.32 kg/m3 | mass density (288.15 K, m1 = 0.5991): 1025.88 ± 0.33 kg/m3 | mass density (288.15 K, m1 = 0.6903): 1029.96 ± 0.34 kg/m3 | speed of sound (298.15 K, m1 = 0.09902): 1501.8 ± 1 m/s | speed of sound (298.15 K, m1 = 0.1981): 1507 ± 1 m/s | speed of sound (298.15 K, m1 = 0.2976): 1512.3 ± 1 m/s | speed of sound (298.15 K, m1 = 0.397): 1517.5 ± 1 m/s | speed of sound (298.15 K, m1 = 0.4992): 1522.9 ± 1 m/s | speed of sound (298.15 K, m1 = 0.5991): 1528.2 ± 1 m/s | speed of sound (298.15 K, m1 = 0.6903): 1533 ± 1 m/s | mass density (298.15 K, m1 = 0.09902): 1001.37 ± 0.3 kg/m3 | mass density (298.15 K, m1 = 0.1981): 1005.7 ± 0.31 kg/m3 | mass density (298.15 K, m1 = 0.2976): 1010.05 ± 0.31 kg/m3 | mass density (298.15 K, m1 = 0.397): 1014.39 ± 0.31 kg/m3 | mass density (298.15 K, m1 = 0.4992): 1018.86 ± 0.32 kg/m3 | mass density (298.15 K, m1 = 0.5991): 1023.22 ± 0.33 kg/m3 | mass density (298.15 K, m1 = 0.6903): 1027.21 ± 0.34 kg/m3 | speed of sound (308.15 K, m1 = 0.09902): 1523.8 ± 1 m/s | speed of sound (308.15 K, m1 = 0.1981): 1527.9 ± 1 m/s | speed of sound (308.15 K, m1 = 0.2976): 1532.1 ± 1 m/s | speed of sound (308.15 K, m1 = 0.397): 1536.3 ± 1 m/s | speed of sound (308.15 K, m1 = 0.4992): 1540.6 ± 1 m/s | speed of sound (308.15 K, m1 = 0.5991): 1544.8 ± 1 m/s | speed of sound (308.15 K, m1 = 0.6903): 1548.6 ± 1 m/s | mass density (308.15 K, m1 = 0.09902): 998.26 ± 0.3 kg/m3 | mass density (308.15 K, m1 = 0.1981): 1002.49 ± 0.31 kg/m3 | mass density (308.15 K, m1 = 0.2976): 1006.74 ± 0.31 kg/m3 | mass density (308.15 K, m1 = 0.397): 1010.98 ± 0.31 kg/m3 | mass density (308.15 K, m1 = 0.4992): 1015.35 ± 0.32 kg/m3 | mass density (308.15 K, m1 = 0.5991): 1019.61 ± 0.33 kg/m3 | mass density (308.15 K, m1 = 0.6903): 1023.51 ± 0.34 kg/m3 | speed of sound (318.15 K, m1 = 0.09902): 1539.8 ± 1 m/s | speed of sound (318.15 K, m1 = 0.1981): 1543.2 ± 1 m/s | speed of sound (318.15 K, m1 = 0.2976): 1546.7 ± 1 m/s | speed of sound (318.15 K, m1 = 0.397): 1550.2 ± 1 m/s | speed of sound (318.15 K, m1 = 0.4992): 1553.8 ± 1 m/s | speed of sound (318.15 K, m1 = 0.5991): 1557.3 ± 1 m/s | speed of sound (318.15 K, m1 = 0.6903): 1560.5 ± 1 m/s | mass density (318.15 K, m1 = 0.09902): 994.33 ± 0.3 kg/m3 | mass density (318.15 K, m1 = 0.1981): 998.44 ± 0.31 kg/m3 | mass density (318.15 K, m1 = 0.2976): 1002.57 ± 0.31 kg/m3 | mass density (318.15 K, m1 = 0.397): 1006.7 ± 0.31 kg/m3 | mass density (318.15 K, m1 = 0.4992): 1010.94 ± 0.32 kg/m3 | mass density (318.15 K, m1 = 0.5991): 1015.09 ± 0.33 kg/m3 | mass density (318.15 K, m1 = 0.6903): 1018.87 ± 0.34 kg/m3
